{"source": "paper PMC10649714", "about": "“Development and Identification of Novel α-Glucosidase Inhibitory Peptides from Mulberry Leaves” (Foods, 2023)", "origin": "cited, not measured here"}
{"system": "α-glucosidase (PDB ID: 5ZCE)", "settings": "not given", "text": "All hydrogen bonds in this complex with a length less than 3.5 Å were considered to make a close contact, and the binding energy obtained was −8.78 kcal/mol. […] Along with other interaction forces, the binding energy was −8.75 kcal/mol. In addition, […] formed seven hydrogen bonds a ..."}
{"compound": "C[C@@H]1O[C@@H](O[C@H]2C(=O)c3c(O)cc(O)cc3O[C@@H]2c2ccc(O)c(O)c2)[C@H](O)[C@H](O)[C@H]1O", "note": "[astilbin]", "binding sites with α-glucosidase": "ASP-60, ASP-199, HIS-203, GLN-256, and GLN-328"}
{"compound": "O=c1c(O)c(-c2ccc(O)cc2O)oc2cc(O)cc(O)c12", "note": "[morin]", "binding sites with α-glucosidase": "ASP-60, ASP-199, HIS-203, GLN-256, and GLN-328"}
{"compound": "O=C(CCc1ccc(O)cc1)c1c(O)cc(O[C@@H]2O[C@H](CO)[C@@H](O)[C@H](O)[C@H]2O)cc1O", "note": "[trilobatin]", "binding sites with α-glucosidase": "ASP-60, ASP-199, HIS-203, GLN-256, and GLN-328"}
{"target": "α-glucosidase (Saccharomyces cerevisiae, UniProt P53341)", "sequence (P53341 whole entry, the tested form may be a part)": "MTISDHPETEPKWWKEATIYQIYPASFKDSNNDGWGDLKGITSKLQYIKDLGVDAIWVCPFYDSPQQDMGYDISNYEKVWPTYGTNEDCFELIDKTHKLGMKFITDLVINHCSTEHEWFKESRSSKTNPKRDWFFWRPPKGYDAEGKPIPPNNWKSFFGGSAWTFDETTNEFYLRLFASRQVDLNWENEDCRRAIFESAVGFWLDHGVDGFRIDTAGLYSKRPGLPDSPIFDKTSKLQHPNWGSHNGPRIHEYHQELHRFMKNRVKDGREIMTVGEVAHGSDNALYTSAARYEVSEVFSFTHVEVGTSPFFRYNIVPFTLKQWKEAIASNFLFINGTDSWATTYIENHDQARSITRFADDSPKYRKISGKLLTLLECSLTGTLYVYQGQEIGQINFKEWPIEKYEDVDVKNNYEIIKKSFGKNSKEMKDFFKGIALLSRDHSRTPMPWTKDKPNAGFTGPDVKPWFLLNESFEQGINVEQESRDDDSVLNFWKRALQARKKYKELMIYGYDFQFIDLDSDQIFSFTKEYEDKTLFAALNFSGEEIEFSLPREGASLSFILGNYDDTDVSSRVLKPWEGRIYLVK", "settings": "Binglangjiang buffalo casein peptides", "text": "(§1) Bioactive peptides are composed of 2–20 amino acids. These peptides have no obvious activity in the macromolecular state but show anti-diabetes, anti-hypertension, anti-inflammation, anti-cancer, and other biological activities after degradation. Enzymatic hydrolysis is commonly employed in both research and industrial settings for the preparation of bioactive peptides due to its favorable attributes, including gentle reaction conditions and the ability to effectively regulate the reaction process. […] Although the precise chemical responsible for this benefit is unknown, the ancient Chinese medicinal book Qi Min Yao Shu referenced the effect of mulberry leaf as tr ... || To further verify the synthesis of peptides, in vitro activity tests were carried out. […] […]."}
{"compound": "FALPQYLK [Binglangjiang buffalo casein peptide]", "IC50 ratio of peptide to acarbose": "approximately 2.5"}
{"compound": "RNAVPITPTLNR [Binglangjiang buffalo casein peptide]", "IC50 ratio of peptide to acarbose": "approximately 2.5"}
{"compound": "TKVIPYVRYL [Binglangjiang buffalo casein peptide]", "IC50 ratio of peptide to acarbose": "approximately 2.5"}
{"compound": "YLGYLEQLLR [Binglangjiang buffalo casein peptide]", "IC50 ratio of peptide to acarbose": "approximately 2.5"}
{"target": "α-glucosidase (Saccharomyces cerevisiae, UniProt P53341)", "settings": "Ginkgo biloba seed protein peptides", "text": "as §1"}
{"compound": "LSMSFPPF [peptide from Ginkgo biloba seed protein]", "IC50 ratio of peptide to acarbose": 1.22}
{"compound": "MPGPPSD [peptide from Ginkgo biloba seed protein]", "IC50 ratio of peptide to acarbose": 2.54}
{"compound": "VPKIPPP [peptide from Ginkgo biloba seed protein]", "IC50 ratio of peptide to acarbose": 3.89}
{"target": "α-glucosidase (Saccharomyces cerevisiae, UniProt P53341)", "settings": "in words; ref 9 (LDLQR, AGGFR, LDNFR), 11 (RVPSLM, KLPGF), ref 12 (SEDSSEVDIDLGNLG), ref 13 (TTGGKGGK), ref 14 (KETTTIVR)", "text": "as §1"}
{"compound": "AGGFR [wheat germ peptide]", "α-glucosidase inhibition in vitro": "excellent"}
{"compound": "KETTTIVR [spicy wood seed protein-derived peptide]", "α-glucosidase inhibition in vitro": "excellent"}
{"compound": "KLPGF [egg white protein-derived peptide]", "α-glucosidase inhibition in vitro": "excellent"}
{"compound": "LDLQR [wheat germ peptide]", "α-glucosidase inhibition in vitro": "excellent"}
{"compound": "LDNFR [wheat germ peptide]", "α-glucosidase inhibition in vitro": "excellent"}
{"compound": "RVPSLM [egg white protein-derived peptide]", "α-glucosidase inhibition in vitro": "excellent"}
{"compound": "SEDSSEVDIDLGNLG [sericin-derived peptide]", "α-glucosidase inhibition in vitro": "excellent"}
{"compound": "TTGGKGGK [black bean protein-derived peptide]", "α-glucosidase inhibition in vitro": "excellent"}
{"target": "α-glucosidase (Saccharomyces cerevisiae, UniProt P53341)", "settings": "wheat germ peptides", "text": "as §1"}
{"compound": "AGGFR [wheat germ peptide]", "IC50 ratio of peptide to acarbose": 2.54}
{"compound": "LDLQR [wheat germ peptide]", "IC50 ratio of peptide to acarbose": 2.52}
{"compound": "LDNFR [wheat germ peptide]", "IC50 ratio of peptide to acarbose": 2.70}
